According to US20110059979A1, “Piperidine/Cyclohexane Carboxamide Derivatives For Use as Vanilloid Receptor Modulators” (GLAXO GROUP LIMITED, priority 2003, published 2011):

Test system: FCA-Induced Hyperalgesia
Assay: FCA-Induced Hyperalgesia in the Guinea Pig
Type: in vivo
Details: dose of 5 mg/kg po
Method: (b) FCA-Induced Hyperalgesia in the Guinea Pig Compounds having a pKb>7.0 in vitro, according to model (a) were tested in this model of hyperalgesia (see WO 2004/024710 for details) and shown to be active.

Structure (SMILES): Cn1c(=O)ccc2c(NC(=O)C3CCN(c4ccc(Cl)cc4)CC3)cccc21 [Example 1, 1-(4-Chlorophenyl)-N-(1-methyl-2-oxo-1,2-dihydro-5-quinolinyl)-4-piperidinecarboxamide]
- activity in FCA-induced hyperalgesia model: significant activity
